Values of other authors as cited in patent US11059813B2, “Polymorphic forms of Dasatinib” (BIOCON LIMITED, priority 2017, dated 2021).

Legend:
[1] = co-former alone
[2] = co-former alone; for thermal stability: melting points greater than 300° C.
[3] = tested on: rat; settings: in vivo, po

For `Nc1ncnc2nc[nH]c12` [Adenine], the hygroscopicity [1] is given as “non-hygroscopic”, the chemical stability [2] is given as “chemically stable” and the thermal stability [2] is given as “thermally stable”. For the same molecule, the LD50 value [3] was 227 mg/kg.
For `Cc1c[nH]c(=O)[nH]c1=O` [Thymine], the hygroscopicity [1] is given as “non-hygroscopic”, the chemical stability [2] is given as “chemically stable” and the thermal stability [2] is given as “thermally stable”. For the same molecule, the LD50 value [3] was 3500 mg/kg.
In the case of `Cc1nc(Nc2ncc(C(=O)Nc3c(C)cccc3Cl)s2)cc(N2CCN(CCO)CC2)n1` [Dasatinib, N-(2-chloro-6-methylphenyl)-2-[[6-[4-(2-hydroxyethyl)-1-piperazinyl]-2-methyl-4-pyrimidinyl]amino]-5-thiazole carboxamide], the solubility in water is listed as “poor”.
